The values below are quoted from earlier work in PMC11331742 (Military Medical Research, 2024).

One series deals with preclinical models. The text has this:
(§1) In addition, studies involving MC2r-independent agonists such as PT-141 could provide insight into cortisol-independent anti-inflammatory mechanisms.

For series [1], the system named is mouse model of acute lung injury.
Text: as §1

A further series relates to MC2r. Also on record: method as in PMID 25140322.

As to `CCCC(=O)C1(c2ccccc2)CCN(C(=O)[C@@H](Cc2ccc(OC)cc2)NC(=O)[C@@H](N)Cc2cncn2C)CC1` [BMS-470539], the anti-inflammatory effects result in the series on preclinical models was “promising anti-inflammatory effects”.

As for “α-melanocyte-stimulating hormone [α-MSH]”, the effect on inflammation result in series [1] is “reduced inflammation”. The “affinity for MC2r” value in the series with MC2r is recorded as “minimal affinity”.
